Measurements published in patent US20230250095A1, “BENZIMIDAZOLE DERIVATIVES, PREPARATION METHOD THEREFOR AND MEDICAL USE THEREOF” (TUOJIE BIOTECH(SHANGHAI) CO., LTD., priority 2020, published 2023).
pIC50: −log10 of the molar value.

Experiments:
hP2X2/3 = target: T1, hP2X2/3 (Homo sapiens, UniProt P56373+Q9UBL9); assay: FLIPR calcium flux assay, antagonistic activity against hP2X2/3 receptor; format: cell-based; details: 1321N1/hP2X2/3 cells, agonist α,β-meATP 1000 nM
T1 construct: host or cells: 1321N1 cells
T1 sequence (Q9UBL9 1-471): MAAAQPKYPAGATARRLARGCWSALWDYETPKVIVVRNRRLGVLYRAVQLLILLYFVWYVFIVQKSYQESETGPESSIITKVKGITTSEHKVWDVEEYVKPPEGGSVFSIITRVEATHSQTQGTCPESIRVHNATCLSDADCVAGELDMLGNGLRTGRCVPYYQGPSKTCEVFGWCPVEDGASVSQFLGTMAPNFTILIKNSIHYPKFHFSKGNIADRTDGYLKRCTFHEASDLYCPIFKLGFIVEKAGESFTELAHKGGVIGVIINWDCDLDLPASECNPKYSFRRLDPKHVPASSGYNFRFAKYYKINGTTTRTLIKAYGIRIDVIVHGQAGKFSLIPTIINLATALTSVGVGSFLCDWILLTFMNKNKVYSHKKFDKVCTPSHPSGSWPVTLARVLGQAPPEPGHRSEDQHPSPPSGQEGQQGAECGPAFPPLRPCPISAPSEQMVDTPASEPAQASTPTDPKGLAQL
T1 sequence (P56373 1-397): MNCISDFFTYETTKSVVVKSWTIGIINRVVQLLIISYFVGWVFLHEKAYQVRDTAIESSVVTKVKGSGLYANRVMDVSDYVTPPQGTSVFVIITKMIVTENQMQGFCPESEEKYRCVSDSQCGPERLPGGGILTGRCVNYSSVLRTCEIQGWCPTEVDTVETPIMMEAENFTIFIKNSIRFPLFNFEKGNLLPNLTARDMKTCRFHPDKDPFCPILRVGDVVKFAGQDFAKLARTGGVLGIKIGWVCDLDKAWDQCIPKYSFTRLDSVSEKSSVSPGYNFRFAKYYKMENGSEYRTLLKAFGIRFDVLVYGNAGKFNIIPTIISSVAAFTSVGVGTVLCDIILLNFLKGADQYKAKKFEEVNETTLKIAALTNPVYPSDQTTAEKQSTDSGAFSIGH
Description: The compounds were screened for antagonistic activity against hP2X3 and hP2X2/3 receptors (changes in calcium flux signals represent the effect of the compounds on ion channels) by an FLIPR assay.
1321N1 cells (adherent cells) stably transfected with hP2X3 and hP2X2/3 receptors were digested, centrifuged, resuspended in a plating medium (DMEM+10% DFBS) and counted, adjusted to 2×10^5 cells/mL. The cells were seeded in a 384-well assay plate at 50 μL/well, and incubated in an incubator at 37° C. with 5% CO2 for 16-24 h. Test compounds (20 mM DMSO stock solution) that were 180 times the desired concentration were prepared with DMSO, and added to a 384-well compound plate at 500 nL/well. Then, each well was supplemented with 30 μL of FLIPR buffer (lx HBSS containing 1.26 mM Ca^2++2 mM CaCl2)+20 mM HEPES), and the mixture was shaken for 20-40 min to be mixed well. The agonist α,β-meATP (final concentration of 500 nM for hP2X3 cells and final concentration of 1000 nM for hP2X2/3 cells) that was 3 times the desired concentration was prepared with an FLIPR buffer, and added to another 384-well compound plate at 35 μL/well. The cell plate in which cells had been plated and cultured for 16-24 h was taken out, and the cell supernatant was removed by pipetting. 30 μL of dye (FLIPR® calcium 4 assay kit, diluted with an FLIPR buffer) was added to each well, and the plate was incubated for 1 h. 15 μL of the compound was added to each well containing cells (dosing using an FLIPR instrument), and after 15 min, 22.5 μL of agonist was added to each well and the fluorescent signal was detected (excitation wavelength: 470-495 nm, emission wavelength: 515-575 nm). With the difference between the peak and the trough of the signal taken as the basic data, the data of the highest concentration of the positive drug taken as the 100% inhibition rate, and the data of DMSO taken as the 0% inhibition rate, the inhibition effect curves of the compounds were fitted on the software Graphpad Prism 6 and IC50 values were calculated.

CYP3A4/5 = assay: CYP inhibition assay in pooled human liver microsomes (midazolam); format: in vitro ADME; details: pH 7.4, probe midazolam (3 μM), human liver microsomes 0.2 mg/mL, substrate midazolam, read-out: CYP 3A4/5 (μM) IC50
Description: (§1) The metabolic reactions of representative substrates of 5 major human CYP subtypes (CYP1A2, CYP2C9, CYP2C19, CYP2D6, CYP3A4/5) were evaluated using 150-donor pooled human liver microsomes (purchased from Corning, Cat. No. 452117). The effects of different concentrations of the test compounds on the metabolic reactions of phenacetin (CYP1A2), diclofenac sodium (CYP2C9), S-mephenytoin (CYP2C19), bufuralol hydrochloride (CYP2D6) and midazolam (CYP3A4/5) were determined by liquid chromatography-tandem mass spectrometry (LC/MS/MS).
(§2) 30 μM phenacetin, 10 μM diclofenac sodium, 35 μM S-mephenytoin, 5 μM bufuralol hydrochloride, 3 μM midazolam, 1 mM NADPH, and test compounds (at concentrations of 0.1 μmol/L, 0.3 μmol/L, 1 μmol/L, 3 μmol/L, 10 μmol/L, and 30 μmol/L, respectively) or positive compound or blank were incubated with 200 μL of a reaction system of pooled human liver microsomes (0.2 mg/mL) (100 mmol/L phosphate buffer, pH 7.4, containing 0.3% by volume of DMSO, 0.6% by volume of acetonitrile, and 0.1% by volume of methanol) at 37° C. for 5 min. Then, 200 μL of acetonitrile containing 3% formic acid and 40 nM internal standard verapamil was added, and the mixture was centrifuged at 4000 rpm for 50 min. The mixture was cooled on ice for 20 min and centrifuged at 4000 rpm for 20 min to precipitate the protein. 200 μL of the supernatant was analyzed by LC/MS/MS.
(§3) The peak area was calculated from the chromatogram. The residual activity rate (%) was calculated by the following formula:
(§4) peak area rate=peak area of metabolite/peak area of internal standard
(§5) residual activity rate (%)=peak area proportion of the test compound group/peak area proportion of the blank group
(§6) The half maximal inhibitory concentrations (IC50) against CYP were calculated by Excel XLfit 5.3.1.3.

CYP2C9 = target: T2, CYP2C9 (Homo sapiens, UniProt P11712); assay: CYP inhibition assay in pooled human liver microsomes (diclofenac sodium); format: in vitro ADME; details: human liver microsomes 0.2 mg/mL, substrate diclofenac sodium; read-out: CYP 2C9 (μM) IC50
T2 construct: 150-donor pooled human liver microsomes (purchased from Corning, Cat. No. 452117); tissue Corning 452117; host or cells: 150-donor pooled human liver microsomes
T2 sequence (P11712 whole entry): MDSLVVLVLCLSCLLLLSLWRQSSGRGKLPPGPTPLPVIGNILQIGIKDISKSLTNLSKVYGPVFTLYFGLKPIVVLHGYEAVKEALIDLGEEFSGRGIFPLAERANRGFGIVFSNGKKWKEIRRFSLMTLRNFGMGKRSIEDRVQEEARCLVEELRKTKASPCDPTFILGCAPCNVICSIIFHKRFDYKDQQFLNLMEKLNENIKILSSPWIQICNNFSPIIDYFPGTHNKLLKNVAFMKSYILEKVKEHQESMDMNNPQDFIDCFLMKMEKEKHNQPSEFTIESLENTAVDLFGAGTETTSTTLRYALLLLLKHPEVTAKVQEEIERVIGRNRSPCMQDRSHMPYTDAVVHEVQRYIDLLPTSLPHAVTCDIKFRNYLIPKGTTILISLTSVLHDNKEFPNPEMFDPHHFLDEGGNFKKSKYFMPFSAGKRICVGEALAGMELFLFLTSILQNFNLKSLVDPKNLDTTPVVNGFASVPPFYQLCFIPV
Description: as §1, §2, §3, §4, §5, §6

| Compound | pIC50 (hP2X2/3) | IC50 at 5 min (CYP3A4/5) | IC50 (CYP2C9) |
| --- | --- | --- | --- |
| CC(=O)N1CCOC(Cn2c(-c3c(F)cc(N4CCCC4=O)cc3F)nc3cc(C)ccc32)C1 (stereo in doubt) [Compound 1] | 5.25 | > 30 µM | 21.7 µM |
| CC(=O)N1CCO[C@@H](Cn2c(-c3c(F)cc(N4CCCC4=O)cc3Cl)nc3cc(C)ccc32)C1 [Compound 4, (S)-1-(4-(1-((4-acetylmorpholin-2-yl)methyl)-5-methyl-1H-benzo[d]imidazol-2-yl)-3-chloro-5-fluorophenyl)pyrrolidin-2-one] | 5.72 | > 30 µM | > 30 µM |
| COC(=O)N1CCO[C@@H](Cc2c(-c3c(F)cc(N4CCCC4=O)cc3F)nc3cc(C)ccn23)C1 [Compound 9, Methyl (S)-2-((2-(2,6-difluoro-4-(2-carbonylpyrrolidin-1-yl)phenyl)-7-methylimidazo[1,2-a]pyridin-3-yl)methyl)morpholine-4-carboxylate] | 4.52 | 12.9 µM | 1.48 µM |

Further lines, results first:

| pIC50 (hP2X2/3) | IC50 at 5 min (CYP3A4/5) | IC50 (CYP2C9) | Compound |
| --- | --- | --- | --- |
| 4.72 | > 30 µM | 3.06 µM | COC(=O)N1CCOC(Cn2c(-c3c(F)cc(N4CCCC4=O)cc3F)nc3cc(C)ccc32)C1 (centres unmarked) [Compound 2, Methyl 2-((2-(2,6-difluoro-4-(2-carbonylpyrrolidin-1-yl)phenyl)-5-methyl-1H-benzo[d]imidazol-1-yl)methyl)morpholine-4-carboxylate] |
| 5.74 | > 30 µM | > 30 µM | CC(=O)N1CCO[C@@H](Cn2c(-c3ccc(N4CCCC4=O)cc3Cl)nc3cc(C)ccc32)C1 [Compound 3, (S)-1-(4-(1-((4-acetylmorpholin-2-yl)methyl)-5-methyl-1H-benzo[d]imidazol-2-yl)-3-chlorophenyl)pyrrolidin-2-one] |
| 5.13 | > 30 µM | > 30 µM | CC(=O)N1CCO[C@@H](Cn2c(-c3c(F)cc(N4CCCC4=O)cc3F)nc3cc(Cl)ccc32)C1 [Compound 10, (S)-1-(4-(1-((4-acetylmorpholin-2-yl)methyl)-5-chloro-1H-benzo[d]imidazol-2-yl)-3,5-difluorophenyl)pyrrolidin-2-one] |
| – | > 30 µM | 21.9 µM | [2H]C([2H])([2H])c1ccc2c(c1)nc(-c1c(F)cc(N3CCCC3=O)cc1F)n2C[C@H]1CN(C(C)=O)CCO1 [Compound 14, (S)-1-(4-(1-((4-acetylmorpholin-2-yl)methyl)-5-(methyl-d3)-1H-benzo[d]imidazol-2-yl)-3,5-difluorophenyl)pyrrolidin-2-one] |
